The record followed here is PubChem BioAssay (NCI).

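All cell lines were grown in 96-well plates and treated with compound for 48 hours. TGI denotes the concentration required for complete inhibition of growth.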

Holding throughout (experiment): NCI anticancer screen, dose series, 48 h
Experiment [1] deals with 786-0 renal.
For experiment [2], the system named is CCRF-CEM leukemia.
For experiment [3], the system named is U251 CNS.
Experiment [4] concerns KM12 colon.
The subject of experiment [5] is OVCAR-3 ovarian.
Experiment [6] relates to RPMI-8226 leukemia.
Experiment [7] has as its system SF-268 CNS.
Experiment [8] deals with UACC-257 melanoma.
For experiment [9], the system named is HOP-92 NSCLC.
Experiment [10] has as its system T-47D breast.

`CC(=O)Oc1cc(OC(C)=O)c2c(C)cc(=O)oc2c1`: the TGI in experiment [1], in [2], in [3], in experiment [4], in [5] and in [6] was greater than 100 µM each time. Moreover, the TGI in [7] and in experiment [8] was greater than 100 µM each time.
With `C[n+]1c2ccccc2c(/C=N\NS(=O)(=O)c2ccc(Cl)cc2)c2ccccc21`, the TGI in [1], in experiment [2], in experiment [3], in [4], in [9] and in experiment [5] was greater than 100 µM each time. Also, the TGI in experiment [6], in experiment [7] and in [8] was greater than 100 µM each time.
Take `Nc1ccc2ccc(-c3ccc[nH]3)nc2n1`: the TGI in [1], in [3], in experiment [4], in experiment [9], in [10] and in experiment [5] was greater than 100 µM throughout. The TGI in experiment [6], in [7] and in [8] was greater than 100 µM throughout.
For `CCOc1ccc(/C=C2\NC(=S)N(/C=C3\C(=O)Oc4ccccc4C3=O)C2=O)cc1`, the TGI worked out at 39.5 µM in experiment [1]; 40.4 µM in experiment [2]; 78.4 µM in experiment [3]; 69.2 µM in experiment [4]; 53.4 µM in experiment [9]; 44.6 µM in experiment [5]. The TGI in experiment [7] stood at 68 µM; in experiment [8] it was 75.8 µM.
Consider `O=[N+]([O-])c1ccc([N+]2=NC(c3ccccc3)=NN(c3ccccc3)C2)cc1`, for which the TGI in [1], in [2], in [3], in experiment [4], in experiment [9] and in experiment [5] was greater than 100 µM in each case. Moreover, the TGI in experiment [6], in experiment [7] and in [8] was greater than 100 µM in each case.
On to `CCC(=O)/C(=C\I)c1ccccc1`, for which the TGI is 3.33 µM in experiment [1]; 4.83 µM in experiment [3]; 19.9 µM in [4]; 4.27 µM in [9]; 3.12 µM in [5]; greater than 100 µM in experiment [6]. The TGI is 40.3 µM in experiment [7] and 16.7 µM in experiment [8].
In the case of `N#CC[N+]1(Cc2ccccn2)CCCC1`, the TGI in [1], in [3], in experiment [4], in [9], in experiment [10] and in experiment [5] was greater than 100 µM in each case. Moreover, the TGI in experiment [6], in [7] and in [8] was greater than 100 µM throughout.
Turning to `O=C1/C(=C/c2ccccc2)NC(=S)N1CN1CCCCC1`, the TGI in [1], in [2], in experiment [3], in experiment [4], in experiment [9] and in [5] was greater than 100 µM in each case. The TGI in experiment [6], in [7] and in [8] was greater than 100 µM in each case.
With `CCOC(=O)CCC(NC(=O)Cc1ccc(Oc2nc3ccccc3nc2-c2ccccc2)cc1)C(=O)OCC` (centres undefined), the TGI was greater than 100 µM in experiment [1]; greater than 100 µM in [2]; greater than 100 µM in experiment [3]; greater than 100 µM in experiment [4]; 99.7 µM in experiment [10]; greater than 100 µM in experiment [5]. Further, the TGI in experiment [6], in [7] and in experiment [8] was greater than 100 µM throughout.
For the compound `Cc1c(O)c(OC2OC(CO)C(O)C(O)C2O)cc2c1C=C[C@@H]1[C@@]2(C)C(=O)C[C@]2(C)[C@@H]([C@@](C)(O)C(=O)CCC(C)(C)O)[C@H](O)C[C@@]12C` (some centres undefined), the TGI in [1] was 74.3 µM; in [2], greater than 100 µM; in experiment [3], 43.2 µM; in experiment [4] it was 66.6 µM; in [9] it was 40.8 µM; in experiment [10] it was 46.3 µM. Also, the TGI in experiment [5] amounted to 46.9 µM; in experiment [7] it was 83.1 µM; in experiment [8] it was 47.2 µM.
Regarding `Cc1ccc(S(=O)(=O)n2ccc(-c3ccc4ccn(S(=O)(=O)c5ccc(C)cc5)c4c3)c2)cc1`, the TGI in experiment [1], in experiment [2], in experiment [3], in experiment [4], in [10] and in experiment [5] was greater than 100 µM each time. Besides, the TGI in experiment [6], in experiment [7] and in [8] was greater than 100 µM throughout.
As to `CCN(CC)CCOc1ccc(C(O)(Cc2ccc(OC)cc2)c2ccccc2)cc1` (centres undefined), the TGI is 32.3 µM in [1]; 44.9 µM in [2]; 35.5 µM in [3]; 36.2 µM in [4]; 46 µM in experiment [9]; greater than 100 µM in experiment [5]. Besides, the values for the TGI in [6], in [7] and in experiment [8] were 39.7 µM, 52 µM and 30.3 µM, respectively.
On to `O=C1C2=C(SCCS2)C(=O)c2c(Sc3ccc(Cl)cc3)c(Sc3ccc(Cl)cc3)c(Sc3ccc(Cl)cc3)c(Sc3ccc(Cl)cc3)c21`, for which the TGI in [1] was greater than 100 µM; in experiment [2] it was 23.8 µM; in experiment [3], greater than 100 µM; in experiment [4], greater than 100 µM; in [10], greater than 100 µM; in experiment [5] it was greater than 100 µM. In addition, the TGI in [6], in experiment [7] and in experiment [8] was greater than 100 µM throughout.
On to `COc1c(C)c(C/C=C(\C)CC/C=C(\C)CC/C=C(\C)CCC=C(C)C)c(OC)c2ccccc12`, for which the TGI is greater than 100 µM in experiment [1]; 64.1 µM in experiment [2]; greater than 100 µM in experiment [3]; greater than 100 µM in experiment [4]; greater than 100 µM in experiment [9]; greater than 100 µM in [5]. Besides, the TGI in experiment [7] and in experiment [8] was greater than 100 µM each time.
In the case of `COc1ccc(CNc2nc3cc(C(F)(F)F)ccc3nc2-c2ccccc2)cc1OC`, the TGI in [1], in experiment [2], in experiment [4], in experiment [10], in [5] and in experiment [7] was greater than 100 µM in each case. Besides, the TGI in [8] was greater than 100 µM.
